In brackets after ≈: the same amount, converted by molar mass. Like-named read-outs stand apart in the source and are kept apart here.
Assays:
E. faecalis GC 2265 = assay: MIC, broth microdilution; details: Enterococcus faecalis
E. coli GC 2271 = assay: MIC, broth microdilution; details: Escherichia coli
E. coli GC 2233 = assay: MIC, broth microdilution; details: Escherichia coli
E. coli GC 3226 = assay: MIC, broth microdilution; details: Escherichia coli
E. coli GC 2232 = assay: MIC, broth microdilution; details: Escherichia coli
E. faecium GC 4556 = assay: MIC, broth microdilution; details: Enterococcus faecium
P. aeruginosa GC 2214 = assay: MIC, broth microdilution; details: Pseudomonas aeruginosa
E. coli GC 2236 = assay: MIC, broth microdilution; details: Escherichia coli
S. pyogenes GC 4563 = assay: MIC, broth microdilution; details: Streptococcus pyogenes
E. coli GC 2203 = assay: MIC, broth microdilution; details: Escherichia coli
S. aureus GC 6466 = assay: MIC, broth microdilution; details: Staphylococcus aureus
E. coli GC 2231 = assay: MIC, broth microdilution; details: Escherichia coli
S. aureus GC 6335 = assay: MIC, broth microdilution; details: Staphylococcus aureus
E. faecium GC 2243 = assay: MIC, broth microdilution; details: Enterococcus faecium
S. aureus GC 2216 = assay: MIC, broth microdilution; details: Staphylococcus aureus
E. coli = assay: Range of MIC for E. coli strains; details: Escherichia coli
E. coli GC 2234 = assay: MIC, broth microdilution; details: Escherichia coli
E. coli GC 2270 = assay: MIC, broth microdilution; details: Escherichia coli
S. aureus GC 6469 = assay: MIC, broth microdilution; details: Staphylococcus aureus
Staph. = assay: Range of MIC for Staph. strains, including MRSA; details: Staphylococcus aureus

- MIC (E. faecalis GC 2265; GC2265, read-out: MINIMAL INHIBITORY CONCENTRATION MIC, Human Serum): 4 µg/mL (≈ 5.83 µM)
- MIC (E. faecalis GC 2265; GC2265, read-out: MINIMAL INHIBITORY CONCENTRATION MIC, Mouse Serum): 4 µg/mL (≈ 5.83 µM)
- MIC (E. faecalis GC 2265; GC2265, read-out: MINIMAL INHIBITORY CONCENTRATION MIC, Water): 4 µg/mL (≈ 5.83 µM)
- MIC (E. coli GC 2271; GC2271, read-out: MINIMAL INHIBITORY CONCENTRATION MIC, Human Serum): > 64 µg/mL
- MIC (E. coli GC 2271; GC2271, read-out: MINIMAL INHIBITORY CONCENTRATION MIC, Mouse Serum): > 64 µg/mL
- MIC (E. coli GC 2271; GC2271, read-out: MINIMAL INHIBITORY CONCENTRATION MIC, Water): > 64 µg/mL
- MIC (E. coli GC 2233; GC2233, read-out: MINIMAL INHIBITORY CONCENTRATION MIC, Human Serum): > 64 µg/mL
- MIC (E. coli GC 2233; GC2233, read-out: MINIMAL INHIBITORY CONCENTRATION MIC, Mouse Serum): > 64 µg/mL
- MIC (E. coli GC 2233; GC2233, read-out: MINIMAL INHIBITORY CONCENTRATION MIC, Water): > 64 µg/mL
- MIC (E. coli GC 3226; GC3226, read-out: MINIMAL INHIBITORY CONCENTRATION MIC, Human Serum): > 64 µg/mL
- MIC (E. coli GC 3226; GC3226, read-out: MINIMAL INHIBITORY CONCENTRATION MIC, Mouse Serum): > 64 µg/mL
- MIC (E. coli GC 3226; GC3226, read-out: MINIMAL INHIBITORY CONCENTRATION MIC, Water): > 64 µg/mL
- MIC (E. coli GC 2232; GC2232, read-out: MINIMAL INHIBITORY CONCENTRATION MIC, Human Serum): > 64 µg/mL
- MIC (E. coli GC 2232; GC2232, read-out: MINIMAL INHIBITORY CONCENTRATION MIC, Mouse Serum): > 64 µg/mL
- MIC (E. coli GC 2232; GC2232, read-out: MINIMAL INHIBITORY CONCENTRATION MIC, Water): > 64 µg/mL
- MIC (E. faecium GC 4556; GC4556, read-out: MINIMAL INHIBITORY CONCENTRATION MIC, Human Serum): 4 µg/mL (≈ 5.83 µM)
- MIC (E. faecium GC 4556; GC4556, read-out: MINIMAL INHIBITORY CONCENTRATION MIC, Mouse Serum): 4 µg/mL (≈ 5.83 µM)
- MIC (E. faecium GC 4556; GC4556, read-out: MINIMAL INHIBITORY CONCENTRATION MIC, Water): 4 µg/mL (≈ 5.83 µM)
- MIC (P. aeruginosa GC 2214; GC2214, read-out: MINIMAL INHIBITORY CONCENTRATION MIC, Human Serum): > 64 µg/mL
- MIC (P. aeruginosa GC 2214; GC2214, read-out: MINIMAL INHIBITORY CONCENTRATION MIC, Mouse Serum): > 64 µg/mL
- MIC (P. aeruginosa GC 2214; GC2214, read-out: MINIMAL INHIBITORY CONCENTRATION MIC, Water): > 64 µg/mL
- MIC (E. coli GC 2236; GC2236, read-out: MINIMAL INHIBITORY CONCENTRATION MIC, Human Serum): > 64 µg/mL
- MIC (E. coli GC 2236; GC2236, read-out: MINIMAL INHIBITORY CONCENTRATION MIC, Mouse Serum): > 64 µg/mL
- MIC (E. coli GC 2236; GC2236, read-out: MINIMAL INHIBITORY CONCENTRATION MIC, Water): > 64 µg/mL
- MIC (S. pyogenes GC 4563; GC4563, read-out: MINIMAL INHIBITORY CONCENTRATION MIC, Human Serum): 4 µg/mL (≈ 5.83 µM)
- MIC (S. pyogenes GC 4563; GC4563, read-out: MINIMAL INHIBITORY CONCENTRATION MIC, Mouse Serum): 4 µg/mL (≈ 5.83 µM)
- MIC (S. pyogenes GC 4563; GC4563, read-out: MINIMAL INHIBITORY CONCENTRATION MIC, Water): 4 µg/mL (≈ 5.83 µM)
- MIC (E. coli GC 2203; GC2203, read-out: MINIMAL INHIBITORY CONCENTRATION MIC, Human Serum): > 64 µg/mL
- MIC (E. coli GC 2203; GC2203, read-out: MINIMAL INHIBITORY CONCENTRATION MIC, Mouse Serum): > 64 µg/mL
- MIC (E. coli GC 2203; GC2203, read-out: MINIMAL INHIBITORY CONCENTRATION MIC, Water): > 64 µg/mL
- MIC (S. aureus GC 6466; GC6466, read-out: MINIMAL INHIBITORY CONCENTRATION MIC, Human Serum): 4 µg/mL (≈ 5.83 µM)
- MIC (S. aureus GC 6466; GC6466, read-out: MINIMAL INHIBITORY CONCENTRATION MIC, Mouse Serum): 4 µg/mL (≈ 5.83 µM)
- MIC (S. aureus GC 6466; GC6466, read-out: MINIMAL INHIBITORY CONCENTRATION MIC, Water): 8 µg/mL (≈ 11.7 µM)
- MIC (E. coli GC 2231; GC2231, read-out: MINIMAL INHIBITORY CONCENTRATION MIC, Human Serum): > 64 µg/mL
- MIC (E. coli GC 2231; GC2231, read-out: MINIMAL INHIBITORY CONCENTRATION MIC, Mouse Serum): > 64 µg/mL
- MIC (E. coli GC 2231; GC2231, read-out: MINIMAL INHIBITORY CONCENTRATION MIC, Water): > 64 µg/mL
- MIC (S. aureus GC 6335; GC6335, read-out: MINIMAL INHIBITORY CONCENTRATION MIC, Human Serum): 4 µg/mL (≈ 5.83 µM)
- MIC (S. aureus GC 6335; GC6335, read-out: MINIMAL INHIBITORY CONCENTRATION MIC, Mouse Serum): 4 µg/mL (≈ 5.83 µM)
- MIC (S. aureus GC 6335; GC6335, read-out: MINIMAL INHIBITORY CONCENTRATION MIC, Water): 4 µg/mL (≈ 5.83 µM)
- MIC (E. faecium GC 2243; GC2243, read-out: MINIMAL INHIBITORY CONCENTRATION MIC, Human Serum): 8 µg/mL (≈ 11.7 µM)
- MIC (E. faecium GC 2243; GC2243, read-out: MINIMAL INHIBITORY CONCENTRATION MIC, Mouse Serum): 4 µg/mL (≈ 5.83 µM)
- MIC (E. faecium GC 2243; GC2243, read-out: MINIMAL INHIBITORY CONCENTRATION MIC, Water): 4 µg/mL (≈ 5.83 µM)
- MIC (S. aureus GC 2216; GC2216, read-out: MINIMAL INHIBITORY CONCENTRATION MIC, Human Serum): 4 µg/mL (≈ 5.83 µM)
- MIC (S. aureus GC 2216; GC2216, read-out: MINIMAL INHIBITORY CONCENTRATION MIC, Mouse Serum): 4 µg/mL (≈ 5.83 µM)
- MIC (S. aureus GC 2216; GC2216, read-out: MINIMAL INHIBITORY CONCENTRATION MIC, Water): 4 µg/mL (≈ 5.83 µM)
- MIC (E. coli; read-out: Minimum inhibitory concentration (MIC), E. coli (Human Serum)): > 64 µg/mL
- MIC (E. coli; read-out: Minimum inhibitory concentration (MIC), E. coli (water)): > 64 µg/mL
- MIC (E. coli; read-out: Range of MIC, E. coli (Water)): > 64 µg/mL
- MIC (E. coli GC 2234; GC2234, read-out: MINIMAL INHIBITORY CONCENTRATION MIC, Human Serum): > 64 µg/mL
- MIC (E. coli GC 2234; GC2234, read-out: MINIMAL INHIBITORY CONCENTRATION MIC, Mouse Serum): > 64 µg/mL
- MIC (E. coli GC 2234; GC2234, read-out: MINIMAL INHIBITORY CONCENTRATION MIC, Water): > 64 µg/mL
- MIC (E. coli GC 2270; GC2270, read-out: MINIMAL INHIBITORY CONCENTRATION MIC, Human Serum): > 64 µg/mL
- MIC (E. coli GC 2270; GC2270, read-out: MINIMAL INHIBITORY CONCENTRATION MIC, Mouse Serum): > 64 µg/mL
- MIC (E. coli GC 2270; GC2270, read-out: MINIMAL INHIBITORY CONCENTRATION MIC, Water): > 64 µg/mL
- MIC (S. aureus GC 6469; GC6469, read-out: MINIMAL INHIBITORY CONCENTRATION MIC, Human Serum): 4 µg/mL (≈ 5.83 µM)
- MIC (S. aureus GC 6469; GC6469, read-out: MINIMAL INHIBITORY CONCENTRATION MIC, Mouse Serum): 4 µg/mL (≈ 5.83 µM)
- MIC (S. aureus GC 6469; GC6469, read-out: MINIMAL INHIBITORY CONCENTRATION MIC, Water): 4 µg/mL (≈ 5.83 µM)
- MIC (Staph.; MRSA, read-out: Range of MIC, Staph (Mouse Serum)): 4 µg/mL (≈ 5.83 µM)
- MIC (Staph.; MRSA, read-out: Range of MIC, Staph (Water)): 4 to 8 µg/mL (≈ 5.83 to 11.7 µM)
- MIC (Staph.; read-out: Minimum inhibitory concentration (MIC), Staph (Human Serum)): 2 to 4 µg/mL (≈ 2.92 to 5.83 µM)
- MIC (Staph.; read-out: Minimum inhibitory concentration (MIC), Staph (Water)): 4 to 8 µg/mL (≈ 5.83 to 11.7 µM)
Structure (SMILES): CC(C)COC(=O)N(CC(=O)Nc1cc(N(C)C)c2c(c1O)C(=O)C1=C(O)[C@]3(O)C(=O)C(C(N)=O)=C(O)[C@@H](N(C)C)[C@@H]3C[C@@H]1C2)C(C)(C)C [Example 59, isobutyl 2-{[(5aR,6aS,7S,10aS)-9-(aminocarbonyl)-4,7-bis(dimethylamino)-1,8,10a,11-tetrahydroxy-10,12-dioxo-5,5a,6,6a,7,10,10a,12-octahydrotetracen-2-yl]amino}-2-oxoethyl(tert-butyl)carbamate]
